For test [1], the target named is T1, Recombinant human OGT protein (O-GlcNAc transferase) (Homo sapiens, UniProt O15294).
T1 construct: recombinant human OGT from R&D Systems
T1 sequence (O15294 2-1046): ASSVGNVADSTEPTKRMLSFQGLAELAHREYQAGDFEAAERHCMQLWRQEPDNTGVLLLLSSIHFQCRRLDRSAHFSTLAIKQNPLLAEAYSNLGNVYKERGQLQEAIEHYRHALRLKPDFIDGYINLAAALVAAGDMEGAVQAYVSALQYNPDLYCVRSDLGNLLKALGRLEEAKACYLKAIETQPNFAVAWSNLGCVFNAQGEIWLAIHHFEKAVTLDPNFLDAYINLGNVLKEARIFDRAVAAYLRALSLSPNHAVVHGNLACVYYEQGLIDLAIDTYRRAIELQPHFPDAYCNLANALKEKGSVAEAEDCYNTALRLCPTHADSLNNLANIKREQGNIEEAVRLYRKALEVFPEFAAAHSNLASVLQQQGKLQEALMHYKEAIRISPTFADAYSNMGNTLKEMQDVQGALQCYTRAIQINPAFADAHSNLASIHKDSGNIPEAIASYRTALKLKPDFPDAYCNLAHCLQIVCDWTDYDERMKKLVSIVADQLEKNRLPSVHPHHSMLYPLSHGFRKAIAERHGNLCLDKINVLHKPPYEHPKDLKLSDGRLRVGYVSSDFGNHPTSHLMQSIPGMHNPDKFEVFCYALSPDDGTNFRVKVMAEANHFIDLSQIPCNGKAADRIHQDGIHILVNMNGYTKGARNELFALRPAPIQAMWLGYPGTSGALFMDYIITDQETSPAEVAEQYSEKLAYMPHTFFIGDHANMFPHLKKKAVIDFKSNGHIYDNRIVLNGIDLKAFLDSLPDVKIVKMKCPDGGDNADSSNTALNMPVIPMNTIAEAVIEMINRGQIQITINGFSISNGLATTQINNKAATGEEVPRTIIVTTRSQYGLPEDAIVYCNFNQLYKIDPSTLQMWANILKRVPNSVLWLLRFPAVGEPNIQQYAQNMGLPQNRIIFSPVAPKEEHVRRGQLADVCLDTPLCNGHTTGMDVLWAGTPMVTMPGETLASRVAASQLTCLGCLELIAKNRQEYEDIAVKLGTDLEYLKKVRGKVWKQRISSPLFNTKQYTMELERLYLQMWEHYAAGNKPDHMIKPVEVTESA
The test is described as follows: UDP-Glo glycosyltransferase assay (luminescence). The class given is biochemical. To be noted: UDP-GlcNAc and peptide KKKYPGGSTPVSSANMM as substrates; 25 mM Tris pH 7.5, 12.5 mM MgCl2, 0.06 mg/mL BSA, 1 mM DTT; unreliable.

The target of test [2] is T1, Recombinant human OGT protein (O-GlcNAc transferase). Kind of test: UDP-Glo glycosyltransferase assay (luminescence). The class given is biochemical.

Consider `COc1cc([C@@H]2c3cc4c(cc3[C@@H](O[C@@H]3O[C@@H]5CO[C@@H](C)O[C@H]5[C@H](O)[C@H]3O)[C@H]3COC(=O)[C@H]23)OCO4)cc(OC)c1O` [Etoposide], for which the “% inhibition at 400 μM” value in test [1] was ~ 47.3%. For the molecule `COc1ccccc1[C@@H](NS(=O)(=O)c1ccc2[nH]c(=O)ccc2c1)C(=O)N(Cc1ccco1)Cc1cccs1` [OSMI-1], in test [2], the IC50 – broadly, the point on the concentration scale where inhibition reaches its midpoint – was 4.47 µM.
